Here are results for 39 molecules from patent US11834430B2, “Compounds useful as inhibitors of isoprenylcysteine carboxyl methyltransferase” (AGENCY FOR SCIENCE, TECHNOLOGY AND RESEARCH, priority 2017, dated 2023).

The experiment concerns the target human ICMT (Homo sapiens (Human), UniProt O60725). Briefly: ICMT biochemical assay (Methyltransferase-Glo). How it is done:
Recombinant human ICMT was prepared by infection of Sf9 cells with a recombinant baculovirus containing the entire open reading frame of the human ICMT cDNA.
Cells producing ICMT were harvested 66 hours post-infection. The cells are homogenized and resuspended in 5 mM NaHPO4 (pH 7.0), and a cocktail of protease inhibitors. The membrane was pelleted, after removal of nuclei and debris, at 100,000×g for 1 hour. Membranes were resuspended in 5 mM NaHPO4 (pH 7.0) with 5 mM EDTA at 10-12 mg/ml. The suspension was stored at −80° C. in multiple aliquots.
An ICMT enzymatic assay was developed using Promega's Methyltransferase-GloTMreagents. In the assay, ICMT catalyzes the methylation of the N-Acetyl-S-farnesyl-L-cysteine by transferring a methyl group from SAM to the farnesylated cysteine and further converts the SAM to SAH. The methyltransferase activity is measured based on the amount of SAH produced from the reaction through the use of coupling enzymes that convert the SAH to ATP. The MTase-Glo detection solution then catalyzes the formation of light from ATP.
A final concentration of 2.0 μM and 20 μM of SAM and peptide were added and further incubated for 90 minutes at room temperature before adding the MTase Glo and detection reagent. Reaction signals were detected using microplate readers on luminescent mode (Satire Tecan). The IC50 was determined by nonlinear regression, using GraphPad Prism version, 5.03.

The mark [1] stands for this setting: ICMT membrane extract from Sf-9 cells, 30 min preincubation, 90 min reaction.

By IC50 is commonly meant the concentration that inhibits the measured activity by half. Read a low IC50 as inhibition by little substance.

Where “and” joins values, the source holds several entries; their conditions need not be identical. Equal entries are not always repeated.

Sequence of human ICMT (O60725 whole entry): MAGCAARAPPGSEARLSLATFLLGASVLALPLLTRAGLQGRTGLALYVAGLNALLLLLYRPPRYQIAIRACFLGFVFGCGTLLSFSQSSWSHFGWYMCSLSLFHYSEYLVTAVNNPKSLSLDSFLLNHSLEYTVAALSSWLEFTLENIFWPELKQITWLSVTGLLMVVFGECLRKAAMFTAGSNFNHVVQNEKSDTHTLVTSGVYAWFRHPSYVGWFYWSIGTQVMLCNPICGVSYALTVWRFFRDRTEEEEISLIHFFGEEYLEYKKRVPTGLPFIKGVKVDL

`N#Cc1ccc(OCCOc2cccc(-n3cnnc3)c2)cc1` [Compound 21, 4-(2-(3-(4H-1,2,4-triazol-4-yl)phenoxy)ethoxy)benzonitrile] displayed an IC50 under setting [1] of 298 nM.

Regarding `Cc1nccn1-c1cccc(OC(C)COc2ccc(C#N)cc2Cl)c1` (stereo not drawn) [Compound 22, 3-chloro-4-(2-(3-(2-methyl-1H-imidazol-1-yl)phenoxy)propoxy)benzonitrile], under setting [1], the IC50 came out at 3 nM.

Regarding `Cc1nccn1-c1cccc(OC(C)COc2ccc(C#N)cc2F)c1` (stereo not drawn) [Compound 23, 3-fluoro-4-(2-(3-(2-methyl-1H-imidazol-1-yl)phenoxy)propoxy)benzonitrile], the midpoint of inhibition under setting [1], the IC50, lay at 61 nM. Compared with the last molecule, the IC50 is about 20-fold higher.

`Cc1nccn1-c1cc(OCCOc2ccc(C#N)cc2Cl)ccn1` [Compound 24, 3-chloro-4-(2-((2-(2-methyl-1H-imidazol-1-yl)pyridin-4-yl)oxy)ethoxy)benzonitrile] returned an IC50 under setting [1] of 1 nM.

As for `Cc1nccn1-c1cccc(OCC(C)Oc2ccc(C#N)cc2F)c1` (stereo not drawn) [Compound 25, 3-fluoro-4-((1-(3-(2-methyl-1H-imidazol-1-yl)phenoxy)propan-2-yl)oxy)benzonitrile], the IC50 under setting [1] came to 23 nM.

`C#Cc1ccc(OCCOc2cccc(-n3ccnc3C)c2)cc1` [Compound 26, 1-(3-(2-(4-ethynylphenoxy)ethoxy)phenyl)-2-methyl-1H-imidazole]: under setting [1], half-maximal inhibition (IC50) required 69 nM. This IC50 lies about 3-fold higher than the previous one.

For the molecule `Cc1cc(F)ccc1OCCOc1cccc(-c2ccnn2C)c1` [Compound 27, 5-(3-(2-(4-fluoro-2-methylphenoxy)ethoxy)phenyl)-1-methyl-1H-pyrazole], under setting [1], the IC50 was 290 nM.

`CC(COc1cccc(-n2ccnc2C2CC2)c1)Oc1ccc(C#N)cc1F` (stereo not drawn) [Compound 28, 4-((1-(3-(2-cyclopropyl-1H-imidazol-1-yl)phenoxy)propan-2-yl)oxy)-3-fluorobenzonitrile] gave an IC50 under setting [1] of 1.6 nM.

`COc1cc(C#N)ccc1OC(C)COc1cccc(-n2ccnc2C)c1` (stereo not drawn) [Compound 29, 3-methoxy-4-((1-(3-(2-methyl-1H-imidazol-1-yl)phenoxy)propan-2-yl)oxy)benzonitrile] had an IC50 under setting [1] of 0.08 nM.

Under setting [1], `Cc1cc(C#N)ccc1OC(C)COc1cccc(-c2ccnn2C)c1` (stereo not drawn) [Compound 30, 3-methyl-4-((1-(3-(1-methyl-1H-pyrazol-5-yl)phenoxy)propan-2-yl)oxy)benzonitrile] displayed an IC50 of 1.6 nM.

In turn, `COc1cc(C#N)ccc1OC(C)COc1cccc(-c2ccnn2C)c1` (stereo not drawn) [Compound 31, 3-methoxy-4-((1-(3-(1-methyl-1H-pyrazol-5-yl)phenoxy)propan-2-yl)oxy)benzonitrile] showed an IC50 under setting [1] of 1.2 nM.

In the case of `Cc1nccn1-c1cccc(O[C@H](C)COc2ccc(C#N)cc2Cl)c1` [Compound 32, (R)-3-chloro-4-(2-(3-(2-methyl-1H-imidazol-1-yl)phenoxy)propoxy)benzonitrile], under setting [1], the IC50 stood at 200 nM.

The molecule `Cc1nccn1-c1cccc(O[C@@H](C)COc2ccc(C#N)cc2Cl)c1` [Compound 33, (S)-3-chloro-4-(2-(3-(2-methyl-1H-imidazol-1-yl)phenoxy)propoxy)benzonitrile] gave an IC50 under setting [1] of 1.5 nM.

Molecule `Cc1nccn1-c1cccc(O[C@H](C)COc2ccc(C#N)cc2F)c1` [Compound 34, (R)-3-fluoro-4-(2-(3-(2-methyl-1H-imidazol-1-yl)phenoxy)propoxy)benzonitrile] displayed an IC50 under setting [1] of 1470 nM.

Consider `Cc1nccn1-c1cccc(O[C@@H](C)COc2ccc(C#N)cc2F)c1` [Compound 35, (S)-3-fluoro-4-(2-(3-(2-methyl-1H-imidazol-1-yl)phenoxy)propoxy)benzonitrile], for which the IC50 under setting [1] is 3.6 nM.

Turning to `Cc1nccn1-c1cccc(OCCOc2ccc(C#N)cc2OC(F)(F)F)c1` [Compound 36, 4-(2-(3-(2-methyl-1H-imidazol-1-yl)phenoxy)ethoxy)-3-(trifluoromethoxy)benzonitrile], the IC50 under setting [1] turned out to be 140 nM.

Consider `N#Cc1ccc(OCCOc2cccc(-n3cnnc3)c2)c(F)c1` [Compound 38, 4-(2-(3-(4H-1,2,4-triazol-4-yl)phenoxy)ethoxy)-3-fluorobenzonitrile], for which the midpoint of inhibition under setting [1], the IC50, lay at 310 nM.

`Cc1cc(C#N)ccc1O[C@H](C)COc1cccc(-c2ccnn2C)c1` [Compound 39, (R)-3-methyl-4-((1-(3-(1-methyl-1H-pyrazol-5-yl)phenoxy)propan-2-yl)oxy)benzonitrile] came in with an IC50 under setting [1] of 4.7 nM.

Under setting [1], `Cc1cc(C#N)ccc1O[C@@H](C)COc1cccc(-c2ccnn2C)c1` [Compound 40, (S)-3-methyl-4-((1-(3-(1-methyl-1H-pyrazol-5-yl)phenoxy)propan-2-yl)oxy)benzonitrile] showed a 50% inhibitory concentration (IC50) of 9.5 nM.

The molecule `C[C@@H](COc1cccc(-n2ccnc2C2CC2)c1)Oc1ccc(C#N)cc1F` [Compound 42, (S)-4-((1-(3-(2-cyclopropyl-1H-imidazol-1-yl)phenoxy)propan-2-yl)oxy)-3-fluorobenzonitrile] registered an IC50 under setting [1] of 12 nM.

`Cc1nccn1-c1cccc(OCC(C)Oc2ccc(C#N)cc2Cl)c1` (stereo not drawn) [Compound 44, 3-chloro-4-((1-(3-(2-methyl-1H-imidazol-1-yl)phenoxy)propan-2-yl)oxy)benzonitrile] displayed an IC50 under setting [1] of 780 nM.

For `COc1cc(C#N)ccc1O[C@H](C)COc1cccc(-c2ccnn2C)c1` [Compound 48, (R)-3-methoxy-4-((1-(3-(1-methyl-1H-pyrazol-5-yl)phenoxy)propan-2-yl)oxy)benzonitrile], the IC50 under setting [1] was found to be 0.64 nM. This IC50 is about 1200-fold lower than that of the molecule before.

Under setting [1], `Cc1cc(C#N)ccc1O[C@@H](C)COc1cccc(-n2ccnc2C2CC2)c1` [Compound 49, (S)-4-((1-(3-(2-cyclopropyl-1H-imidazol-1-yl)phenoxy)propan-2-yl)oxy)-3-methylbenzonitrile] gave an IC50 of 0.3 nM.

Take `Fc1cc(Cl)ccc1OCCOc1cccc(-n2ccnc2C2CC2)c1` [Compound 50, 1-(3-(2-(4-chloro-2-fluorophenoxy)ethoxy)phenyl)-2-cyclopropyl-1H-imidazole]: the IC50 under setting [1] was found to be 12 nM.

`C#Cc1ccc(OCCOc2cccc(-n3ccnc3C)c2)c(F)c1` [Compound 51, 1-(3-(2-(4-ethynyl-2-fluorophenoxy)ethoxy)phenyl)-2-methyl-1H-imidazole]: half-maximal inhibition under setting [1] (IC50) was put at 20 nM.

Regarding `N#Cc1ccc(OCCOc2cccc(-n3ccnc3C3CC3)c2)c(N)c1` [Compound 52, 3-amino-4-(2-(3-(2-cyclopropyl-1H-imidazol-1-yl)phenoxy)ethoxy)benzonitrile], the IC50 under setting [1] is 3.6 nM. This IC50 lies about 5.6-fold lower than the previous one.

Molecule `Cn1nccc1-c1cccc(OCCOc2ccc(F)cc2C#N)c1` [Compound 54, 5-fluoro-2-(2-(3-(1-methyl-1H-pyrazol-5-yl)phenoxy)ethoxy)benzonitrile] came in with an IC50 under setting [1] of 32 nM. Compared with the last molecule, the IC50 is about 8.9-fold higher.

Molecule `Cc1nccn1-c1cccc(OC[C@@H](C)Oc2ccc(C#N)cc2Cl)c1` [Compound 55, (R)-3-chloro-4-((1-(3-(2-methyl-1H-imidazol-1-yl)phenoxy)propan-2-yl)oxy)benzonitrile] displayed an IC50 under setting [1] of 11 nM.

`Cc1nccn1-c1cccc(OC[C@H](C)Oc2ccc(C#N)cc2Cl)c1` [Compound 56, (S)-3-chloro-4-((1-(3-(2-methyl-1H-imidazol-1-yl)phenoxy)propan-2-yl)oxy)benzonitrile] displayed an IC50 under setting [1] of 0.15 nM.

`Cn1nccc1-c1cccc(OCCOc2ccc(C#N)cc2)c1` [Compound 57, 4-(2-(3-(1-methyl-1H-pyrazol-5-yl)phenoxy)ethoxy)benzonitrile] gave a half-inhibitory concentration (IC50) under setting [1] of 9 nM.

Consider `Cc1ccc(OCCOc2cccc(-n3ccnc3C)c2)c(F)c1` [Compound 58, 1-(3-(2-(2-fluoro-4-methylphenoxy)ethoxy)phenyl)-2-methyl-1H-imidazole], for which, under setting [1], the IC50 turned out to be 60 nM. Compared with the last molecule, the IC50 is about 6.7-fold higher.

The molecule `COc1cc(C#N)ccc1O[C@@H](C)COc1cccc(-c2ccnn2C)c1` [Compound 60, (S)-3-methoxy-4-((1-(3-(1-methyl-1H-pyrazol-5-yl)phenoxy)propan-2-yl)oxy)benzonitrile] gave an IC50 (unit (nM)) of 0.81 nM. This lies in the sub-nanomolar range.

Regarding `Cc1cc(C#N)ccc1OC(C)COc1cccc(-n2ccnc2C2CC2)c1` (stereo not drawn) [Compound 61, 4-((1-(3-(2-cyclopropyl-1H-imidazol-1-yl)phenoxy)propan-2-yl)oxy)-3-methylbenzonitrile], the IC50 (unit (nM)) turned out to be 0.88 nM.

Molecule `N#Cc1ccc(OCCOc2cccc(-n3ccnc3C3CC3)c2)cc1` [Compound 62, 4-(2-(3-(2-cyclopropyl-1H-imidazol-1-yl)phenoxy)ethoxy)benzonitrile] yielded an IC50 under setting [1] of 8.5 nM.

As for `Cc1nccn1-c1cccc(OC(C)C(C)Oc2ccc(C#N)cc2F)c1` (stereo not drawn) [Compound 63, 3-fluoro-4-(3-(3-(2-methyl-1H-imidazol-1-yl)phenoxy)butan-2-yloxy)benzonitrile], the IC50 under setting [1] was 18 nM and 6 nM.

`CC(COc1cccc(-c2ccno2)c1)Oc1ccc(C#N)cc1F` (stereo not drawn) [Compound 64, 3-fluoro-4-((1-(3-(isoxazol-5-yl)phenoxy)propan-2-yl)oxy)benzonitrile]: the IC50 under setting [1] was 270 nM and 470 nM.

As to `C[C@H](COc1cccc(-c2ccno2)c1)Oc1ccc(C#N)cc1F` [Compound 65, (R)-3-fluoro-4-((1-(3-(isoxazol-5-yl)phenoxy)propan-2-yl)oxy)benzonitrile], the IC50 under setting [1] is 4670 nM and 4390 nM.

As for `C[C@@H](COc1cccc(-c2ccno2)c1)Oc1ccc(C#N)cc1F` [Compound 66, (S)-3-fluoro-4-((1-(3-(isoxazol-5-yl)phenoxy)propan-2-yl)oxy)benzonitrile], the IC50 under setting [1] was 180 nM and 190 nM.

On to `N#Cc1ccc(OCCOc2cccc(-c3cnoc3)c2)cc1` [Compound 67, 4-(2-(3-(isoxazol-4-yl)phenoxy)ethoxy)benzonitrile], for which, under setting [1], the IC50 was 140 nM and 100 nM.
